One series concerns VCAM-1. Put plainly: VCAM-1 assay with ELISA readout (Examples 5-6). Format: cell-based. Conditions: for IC50: TNF added with compound, incubated overnight (approximately 16 hours). The method, then:
Two to four confluent P150 plates are trypsinized and the cells transferred to a 50 mL conical centrifuge tube. The cells are pelleted, resuspended, and counted using the trypan blue exclusion method.
Cells are resuspended at a concentration of 36,000 cells/mL and 1 mL is aliquoted per well.
Cells are split into 24 well tissue culture plates. The cells in each well should be approximately 90-95% confluent by the following day. Cells should not be older than passage 8.
Compounds are initially screened at 50 μM and 10 μM. A 50 mM stock solution for each compound is prepared in culture medium. The stock solution is diluted to 5 mM and 1 mM. When 10 μL of the 5 mM solution is added to the well (1 mL medium/well), the final concentration will be 50 μM. Adding 10 μL of the 1 mM solution to the well will give a final concentration of 10 μM.
Compounds which will not go into solution in culture medium are resuspended in DMSO at a concentration of 25 mM. The stock solution is then diluted to the final concentration in culture medium. The old medium is aspirated and 1 mL of the new medium with the compound is added. For example, if the final concentration is 50 µM, the 2 μL of the 25 mM stock is added per mL of culture medium. The […] solution is diluted for lower concentrations.
The compounds are added to the plate (each compound is done in duplicate). One plate is done for VCAM expression and one plate is done for ICAM expression.
Immediately after the compounds are added, TNF is added to each well. 100 units/mL TNF is usually added to each well. Since each lot of TNF varies in the number of units, each new lot is titrated to determine the optimum concentration. Therefore this concentration will change. If 100 units/mL is being used, dilute the TNF to 10 units/μL and add 10 μL to each well.
(§1) The plates are incubated at 37° C., 5% CO2 overnight (approximately 16 hours). The next day the plates are checked under the microscope to see if there are any visual signs of toxicity. Records are made of any cell death, debris, or morphology changes, as well as insoluble compounds (particulate or turbity).
In order to assess MCP-1, the media (500 μL) is saved and frozen at −70° C. Wash cells once with roughly 1 ml/well of Hanks Balance Salt Solution (HBSS) or PBS. Gently empty the wash solution and then tap the plate onto paper towels. Add either 250 μL/well of HBSS+5% FCCS to the plank (no primary antibody wells) or 250 μL/well of primary antibody diluted in HBSS+5% FCS. Incubate for 30 minutes at 37° C. Wash the wells twice with 0.5 mL/well HBSS or PBS and gently tap the plates onto paper towels after the last wash. Add 250 μL/well of HRP-conjugated second antibody diluted in HBSS+5% FCS to every well including the blank wells (no primary antibody). Incubate at 37° C. for 30 minutes. Wash the wells four times with 0.5 mL/well HBSS or PBS and gently tap the plates onto paper towels after the last wash. Add 250 μL/well of substrate solution. Incubate at room temperature in the dark until there is adequate color development (blue). Note the length of time incubation was performed (typically 15-30 minutes). Add 75 μL/well stopper solution (8N sulfuric acid), and read at 450 nm.
A general note: An ELISA detects its analyte on a solid surface through an enzyme-linked reagent.

For another series, the system named is cells. It is filed as cell-based. On the set-up: unit not given beside the values. How it is done: as §1

In general, IC50 refers to the concentration that gives 50% inhibition.

As to `CC(C)(C)c1cc(S(=O)(=O)Cc2ccc([N+](=O)[O-])cc2)cc(C(C)(C)C)c1O` [2,6-di-tert-butyl-4-(sulfonyl-(4′-nitrobenzyl))phenol], in the series with VCAM-1, the IC50 was 40 µM. Also, in the series on cells, the LD50 stood at 100.

As to `CC(C)(C)c1cc(SCc2ccc([N+](=O)[O-])cc2[N+](=O)[O-])cc(C(C)(C)C)c1O` [2,6-di-tert-butyl-4-thio(2′,4′-dinitrobenzyl)phenol], the IC50 in the series with VCAM-1 amounted to 8 µM. The LD50 in the series on cells was 400.

On to `CN(C)CCCSc1cc(C(C)(C)C)c(O)c(C(C)(C)C)c1` [2,6-di-tert-butyl-4-thio(3′-(dimethylamino)propyl))phenol], for which, in the series on VCAM-1 (at 50 μM), the “VCAM-1 inhibition at [μM]” value is recorded as 30% at 50. Besides, the LD50 with cells is given as 100.

As for `CC(C)(C)c1cc(SCc2cccc([N+](=O)[O-])c2)cc(C(C)(C)C)c1O` [2,6-di-tert-butyl-4-thio(3′-nitrobenzyl)phenol], in the series on VCAM-1, the IC50 amounted to 13 µM. In the series with cells, this molecule returned an LD50 of 200.

On to `CC(C)(C)c1cc(SCc2ccc(C(=O)O)cc2)cc(C(C)(C)C)c1O` [2,6-di-tert-butyl-4-thio(4′(methyl)benzoic acid)phenol], for which the IC50 in the series with VCAM-1 was more than 50 µM. The molecule also showed an LD50 in the series with cells of more than 100.

On to `CC(C)(C)c1cc(SCc2ccc(CCO)cc2)cc(C(C)(C)C)c1O` [2,6-di-tert-butyl-4-thio(4′-(methyl)phenylethyl alcohol))phenol], for which the IC50 in the series on VCAM-1 amounted to 15 µM. Moreover, the LD50 with cells is reported as 50.

Consider `CC(=O)Oc1ccc(CSc2cc(C(C)(C)C)c(O)c(C(C)(C)C)c2)cc1` [2,6-di-tert-butyl-4-thio(4′-acetoxybenzyl)phenol], for which, in the series with VCAM-1, the IC50 was found to be 18 µM. The molecule further yielded an LD50 in the series with cells of 75.

With `CN(C)S(=O)(=O)c1ccc(CSc2cc(C(C)(C)C)c(O)c(C(C)(C)C)c2)cc1` [2,6-di-tert-butyl-4-thio(4′-methyl-N,N-dimethylbenzene-sulfonamide)phenol], in the series on VCAM-1, the IC50 came out at 20 µM. The molecule further showed an LD50 in the series on cells of 350.

As for `CC(C)(C)c1cc(SCc2ccc([N+](=O)[O-])cc2)cc(C(C)(C)C)c1O` [2,6-di-tert-butyl-4-thio(4′-nitrobenzyl)phenol], the half-maximal inhibitory concentration (IC50) in the series on VCAM-1 came to 10 µM. Moreover, in the series on cells, the LD50 is reported as 200.

With `CC(C)(C)c1cc(SCCc2ccc([N+](=O)[O-])cc2)cc(C(C)(C)C)c1O` [2,6-di-tert-butyl-4-thio(4′-nitrophenethyl)phenol], in the series on VCAM-1, the IC50 amounted to 15 µM. Besides, in the series with cells, the LD50 is 0.4.

`CCCCC(OC(C)=O)Sc1cc(C(C)(C)C)c(O)c(C(C)(C)C)c1` (stereo not drawn) [2,6-di-tert-butyl-4-thio((1′-(acetoxy))pentyl)phenol] had an LD50 in the series on cells of 100.

For the molecule `CC(C)(C)c1cc(SCc2ccc(C(=O)O)o2)cc(C(C)(C)C)c1O` [2,6-di-tert-butyl-4-thio((2′-furancarboxylic acid)-5-methyl)phenol], in the series on VCAM-1, the IC50 stood at 40 µM. This molecule returned an LD50 in the series with cells of 400.

Take `CC(C)(C)c1cc(SCCCC(=O)O)cc(C(C)(C)C)c1O` [2,6-di-tert-butyl-4-thio(butanoic acid)phenol]: the concentration for half-maximal inhibition (IC50) with VCAM-1 turned out to be 75 µM. In addition, in the series on cells, the LD50 is given as 200.

For `CC(C)(C)c1cc(SCc2ccc(CC(=O)O)cc2)cc(C(C)(C)C)c1O` [2,6-di-tert-butyl-4-thio-(4′(methyl)phenylacetic acid)) phenol], in the series on VCAM-1, the concentration for half-maximal inhibition (IC50) was 80 µM. In the series with cells, this molecule had an LD50 of 200.

“Butanedioic acid, mono[4-[[1-[[3,5-bis(1,1-dimethylethyl)-4-methoxyphenyl]thio]1-methylethyl]thio]-2,6-bis(1,1-dimethylethyl)phenyl] ester”: the IC50 in the series on VCAM-1 was more than 50 µM.

Regarding “Oxiranemethanol, α-[[[3-[[4-[[1-[[3,5-bis(1,1-dimethylethyl)-4-hydroxyphenyl]thio]-1-methylethyl]thio]-2,6-bis(1,1-dimethylethyl)phenoxy]methyl]oxiranyl]methoxy]methyl]-”, the IC50 in the series with VCAM-1 stood at 60 µM.

As for “Pentanedioic acid, (1-methylethylidene)bis(thio{2,6-bis(1,1-dimethylethyl)-4,1-phenylene)]ester”, the IC50 in the series with VCAM-1 is more than 50 µM.

For the origin of these results see patent publication US20060058268A1, “Compounds and methods for treating diabetic vascular diseases” (priority 2004, published 2006).
